{"source": "patent US20220312771A1", "about": "“BIOCIDAL COMPOSITE MATERIAL” (PENNOG LIMITED, priority 2019, published 2022)", "system": "Chlorella sp.", "assay": "Growth of Chlorella sp. in Jaworskis Medium with different concentrations of copper", "assay_type": "cell-based", "details": "14 days", "protocol": "Fresh water algae Chlorella sp. cultivated at between 10° C. and 20° C. for 14 days on Jaworskis Medium (Table below) was inoculated into fresh, sterile Jaworskis Medium (prepared as per Table 11) containing copper sulphate solution and copper-containing soak solutions. The soak solution was obtained from the third soak of the second cycle of phototreated MSMCu from Example 3. The extent of growth of Chlorella sp. was observed after a further 14 days (Table 12).\nAfter 14 days in different concentrations of copper.", "data": [{"smiles": "O=S(=O)([O-])[O-].[Cu+2]", "note": "[Copper sulphate solution, copper sulphate]", "values": [{"measurement": "Growth of Chlorella sp., Abs 665 nm", "setting": "copper concentration 1 μg/L", "result": 0.137}, {"measurement": "Growth of Chlorella sp., Abs 780 nm", "setting": "copper concentration 1 μg/L", "result": 0.118}, {"measurement": "Growth of Chlorella sp., Abs 665 nm", "setting": "copper concentration 2 μg/L", "result": 0.143}, {"measurement": "Growth of Chlorella sp., Abs 780 nm", "setting": "copper concentration 2 μg/L", "result": 0.128}, {"measurement": "Growth of Chlorella sp., Abs 665 nm", "setting": "copper concentration 5 μg/L", "result": 0.103}, {"measurement": "Growth of Chlorella sp., Abs 780 nm", "setting": "copper concentration 5 μg/L", "result": 0.096}, {"measurement": "Growth of Chlorella sp., Abs 665 nm", "setting": "copper concentration 7 μg/L", "result": 0.081}, {"measurement": "Growth of Chlorella sp., Abs 780 nm", "setting": "copper concentration 7 μg/L", "result": 0.077}, {"measurement": "Growth of Chlorella sp., Abs 665 nm", "setting": "copper concentration 9 μg/L", "result": 0.092}, {"measurement": "Growth of Chlorella sp., Abs 780 nm", "setting": "copper concentration 9 μg/L", "result": 0.077}]}]}
